Target: T1, Troponin C, slow skeletal and cardiac muscles [4-85] (Human, UniProt P63316)
T1 construct: 4-85
Assay: Fluorescence Polarization Assay
Settings: pH 7; 14 °C
Description: The fluorescence polarization assays were performed at 298 K following a protocol modified from previously reported protocol [Zhuo et al., Mol. Biosyst., 12:2532-2540]. Synthetic peptides were labeled with fluorescein. Titrations were conducted by monitoring polarization as a function of increasing amounts of the proteins of TnC N-terminal domain added to 20 nM fluorescein-peptides in a buffer 50 mM HEPES, pH 7.0, 0.1% Tween 20, 200 mM NaCl and 15 mM DTT.

T1 sequence (P63316 4-85): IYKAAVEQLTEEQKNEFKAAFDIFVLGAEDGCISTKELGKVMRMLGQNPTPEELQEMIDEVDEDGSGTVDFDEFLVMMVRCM

Kd | Compound
15.7 µM | CSCC[C@H](NC(=O)[C@H](C)NC(=O)[C@H](CC(=O)O)NC(=O)[C@H](C)N)C(=O)N[C@@H](CCSC)C(=O)N[C@@H](CCC(N)=O)C(=O)N[C@@H](C)C(=O)N[C@@H](CC(C)C)C(=O)N[C@@H](CC(C)C)C(=O)NCC(=O)N[C@@H](C)C(=O)N[C@@H](CCCNC(=N)N)C(=O)O [ADAMMQALLGAR]
4.2 µM | CC[C@H](C)[C@H](N)C(=O)N[C@@H](CO)C(=O)N[C@@H](C)C(=O)N[C@@H](CC(=O)O)C(=O)N[C@@H](C)C(=O)N[C@@H](CCSC)C(=O)N[C@@H](CCSC)C(=O)N[C@@H](CCC(N)=O)C(=O)N[C@@H](C)C(=O)N[C@@H](CC(C)C)C(=O)N[C@@H](CC(C)C)C(=O)NCC(=O)N[C@@H](C)C(=O)N[C@@H](CCCNC(=N)N)C(=O)N[C@@H](C)C(=O)N[C@@H](CCCCN)C(=O)N[C@@H](CCC(=O)O)C(=O)N[C@@H](CO)C(=O)O [ISADAMMQALLGARAKES]
